Reference: patent US20010018182A1, “Methods of monitoring disease states and therapies using gene expression profiles” (Rosetta Inpharmatics, Inc., priority 1998, published 2001)

Columns and labels:
[1] = tested on: yeast Saccharomyces cerevisiae; experiment: growth defect of yeast on methotrexate drug exposure; type: cell-based; details: 100 μM titration of methotrexate
[2] = tested on: yeast gene YOL031C expression; experiment: gene transcript array mRNA expression response to methotrexate titrations, Hill function fit; type: cell-based, Saccharomyces cerevisiae; details: least squares fit of YOL031C expression response (log10 expression ratio); exposure levels 3, 6, 25, 50, 100, 200 μM
From the text: FIG. 2 illustrates an example of perturbation response profiles measured at discrete protein activity levels of dihydrofolate reductase. Specifically, the figure illustrates mRNA expression levels of 30 genes of the yeast Saccharomyces cerevisiae that, of the approximately 6000 genes in the genome of this yeast, had the largest expression changes in response to six different titrations of the drug methotrexate, which is known to act primarily by disrupting the activity of dihydrofolate reductase. These gene expression level measurements were made with gene transcript arrays, as described in Section 5.4. The perturbation response profiles in FIG. 2 can be interpolated according to the methods disclosed in Section 5.3, below, to provide perturbation response profiles for any activity level of dihydrofolate reductase, and are thereby correlated to efficacy of the drug methotrexate.
In model fitting, the perturbation responses are interpolated by approximating each by a single parameterized function. An exemplary model-fitting function appropriate for approximating transcriptional state data is the Hill function, which has adjustable parameters a, u0, and n. [formula]
the adjustable parameters are selected independently for each cellular constituent of the perturbation response. Preferably, the adjustable parameters are selected so that for each cellular constituent the sum of the squares of the distances H(pl) from Rk(Pl) is minimized. This preferable parameter adjustment method is known in the art as a least squares fit of H( ) to Rk( ). Other possible model functions are based on polynomial fitting, for example by various known classes of polynomials.
Model fitting with a Hill function is illustrated with respect to FIGS. 2 and 3. As discussed, FIG. 2 illustrates an example of perturbation by methotrexate and identified by measurement. […]

## CN(Cc1cnc2nc(N)nc(N)c2n1)c1ccc(C(=O)N[C@@H](CCC(=O)O)C(=O)O)cc1 [methotrexate]
[1]
  growth defect: 50%
[2]
  Hill function parameter a: −0.61
  Hill function parameter log10(u0): 1.26
  Hill function parameter n: 2
